Laboratory results as given in publication PMC7355430, “Imunofan—RDKVYR Peptide—Stimulates Skin Cell Proliferation and Promotes Tissue Repair” (Molecules, 2020).
Peptide text beside a SMILES is read from it.

Assays:
T47D breast cancer cells = experiment: MTT proliferation test; assay type: cell-based; details: 48 or 72 h, RPMI-1640 with 10 % FBS; Mann Whitney U-test (Figure S11)
Description: (§1) Cancer cell prolifertion assay. Cell proliferation was determined by the MTT method. MTT test measures enzymatic activity, which is a marker of viable cells. Drop in amount of formazan informs that there is less metabolically active cells as compared with control (taken as 100%); however, it might be caused by cell cycle arrest (stopped or slowed proliferation) and/or cell death (which also may happen after prolonged incubation with tested compounds). T47D or MCF-7 breast cancer cells were cultured in RPMI-1640 supplemented with 10 % fetal bovine serum and 1 % penicillin/streptomycin solution. Cells were seeded, at a density of 2 x 10^3 per well, in a 96-well plate and allowed to attach overnight. The medium was replaced with fresh medium supplemented with desired concentrations of each investigated compound for 24, 48 or 72 h. Before the end of treatment, 25 µL of MTT solution (4 mg per ml-^1) were added to each well. After 3 h of incubation, medium was removed, and formazan crystals were dissolved in 100 µL of DMSO. Absorbance was measured at 570 nm (with reference wavelength 660 nm) in a Victor microplate reader. Data were obtained from at least three independent experiments performed in triplicate.

[1] = test system: MCF-7 breast cancer cells; experiment: MTT proliferation test; assay type: cell-based; details: 24, 48 or 72 h, RPMI-1640 with 10 % FBS; Mann Whitney U-test (Figure S12)
Description: as §1

CC(C)[C@H](NC(=O)[C@H](CCCCN)NC(=O)[C@H](CC(=O)O)NC(=O)[C@@H](N)CCCNC(=N)N)C(=O)N[C@@H](Cc1ccc(O)cc1)C(=O)N[C@@H](CCCNC(=N)N)C(=O)O [IM, H-Arg-Asp-Lys-Val-Tyr-Arg-OH] (H-RDKVYR-OH)
difference in proliferation from control (MTT) (T47D breast cancer cells): not statistically significant
difference in proliferation from control (MTT) [1]: not statistically significant
